In the OPERA property sets (Mansouri et al. 2018) one finds logP data, which are given here for 128 molecules.

By logP is commonly meant the decadic logarithm of the partition coefficient of the neutral form, usually between octanol and water. `CS(=O)(=O)NN=Cc1ccccc1` gave a logP of 1.2.

The molecule `CCCCN(SN(C)C(=O)ON=C(C)SC)C(=O)OC` had a logP of 2.5.

`COC1(C(F)(F)F)C(Cl)C(Cl)C(Cl)C(Cl)C1Cl` (stereo not drawn) registered a logP of 4.06.

Turning to `CNC(=N)NC(=N)Nc1ccc(Cl)cc1`, the logP is 1.58.

Molecule `CCOP(=S)(OCC)Oc1ccccc1` yielded a logP of 3.46.

Molecule `COP(=O)(NC(C)(C)C)Oc1cc(Cl)c(Cl)cc1Cl` (stereo not drawn) showed a logP of 3.83.

Take `CCCC(=O)NC(=O)NC(=O)CCC`: the logP is 1.4.

As to `Nc1cccc(O[Si]23OCCN(CCO2)CCO3)c1`, the logP is -1.15.

In the case of `COc1ccccc1NC(=O)C(Cl)Cl`, the logP came out at 2.41.

Consider `Cc1cc(=O)[nH]n1-c1ccncn1`, for which the logP was 1.4.

`O=C1CN=C(c2ccccc2)c2ccccc2N1`: the logP was found to be 2.18.

In turn, `CN(C)c1ncnc2sccc12` showed a logP of 1.82.

Molecule `O=C1CN=C(c2ccccc2F)c2cc(Cl)c(Cl)cc2N1` came in with a logP of 3.63.

`CC(C)C1OC(=O)c2ccccc21` (stereo not drawn) displayed a logP of 2.1.

The molecule `COc1cc(CC(=O)O)ccc1OCCCC(C)C` registered a logP of 3.3.

With `COc1cc(Cl)c(NC2=NCCN2)c(Cl)c1`, the logP worked out at 1.6.

The molecule `NS(=O)(=O)c1ccc2c(c1)S(=O)(=O)NC(Cc1ccccc1)N2` (stereo not drawn) returned a logP of 1.03.

In the case of `CCN(CC)c1ccc(CO)cc1`, the logP was 2.29.

`O=C1CCC(=O)N1c1cccc(Cl)c1`: the logP turned out to be 0.98.

On to `CC(C)(C)CC(N)C(=O)O` (stereo not drawn), for which the logP is -1.42.

`CSc1ccc2c(c1)C(c1ccccc1)=NCC(=O)N2` showed a logP of 2.92.

In the case of `COc1cc(Cc2cnc(N)nc2N)cc(OC)c1SC`, the logP is 1.54.

In turn, `CON(C)C(=O)Nc1ccc(OCCc2ccccc2)cc1` gave a logP of 4.5.

In the case of `CC(C)C1=Nc2cc(Cl)ccc2S(=O)(=O)N1`, the logP was 2.

`O=C(Nc1n[nH]c(NC(=O)C(F)(F)F)n1)C(F)(F)F` returned a logP of 0.62.

For the molecule `FC(F)(F)c1nc2c(Cl)ccc(Cl)c2[nH]1`, the logP came out at 2.87.

Molecule `CCN(CC)CCNC(=O)c1cc(Cl)cc(Cl)c1` registered a logP of 3.77.

`CNC(=O)c1ccc(S(N)(=O)=O)cc1` came in with a logP of -0.31.

`COc1cc(C)n(-c2ccncn2)n1`: the logP amounted to 2.21.

`O=NN1CCCCCCCC1`: the log partition coefficient (logP) was found to be 2.04.

Molecule `COc1cccc(NS(=O)(=O)C(F)(F)F)c1` registered a logP of 3.13.

The molecule `CCOP(=S)(OCC)Oc1ccc(SC)cc1Cl` yielded a logP of 4.4.

`CCN(CC)CCCNC(=O)c1ccccc1` came in with a logP of 1.56.

The molecule `C#CC(C=CCl)(CC)OC(N)=O` (stereo not drawn) gave a logP of 1.71.

As to `CC1CN(N=O)CCN1N=O` (stereo not drawn), the logP is -0.28.

Molecule `O=[N+]([O-])C=Cc1cc([N+](=O)[O-])ccc1Cl` registered a logP of 2.23.

Regarding `S=C=Nc1ccc(Nc2ccccc2)cc1`, the logP stood at 4.94.

In the case of `COCC(O)Cn1c([N+](=O)[O-])cnc1C` (stereo not drawn), the logP worked out at 0.04.

Consider `COC12C(COC(N)=O)C3=C(C(=O)C(C)=C(Nc4cccnc4)C3=O)N1CC1NC12` (stereo not drawn), for which the logP was found to be 0.52.

Take `CCOC(=O)C(=Cc1ccc(OC)c(OC)c1)C(C)=O`: the logP is 2.02.

Take `CCOC(=O)CCCn1nnc2ccccc21`: the logP came to 1.86.

On to `CC1(C)N=C(N)N=C(N)N1c1ccc(C(F)(F)F)cc1`, for which the logP worked out at 1.22.

In turn, `CC(C)CNCNC(=O)c1ccccc1` gave a logP of 1.73.

In turn, `N#Cc1ccc2c(c1)C(c1ccccc1)=NCC(=O)N2` came in with a logP of 1.82.

`O=S(=O)(Nc1cccc(F)c1)C(F)(F)F`: the logP amounted to 3.42.

With `CC(=O)Cn1ccnc1[N+](=O)[O-]`, the logP was -0.34.

In turn, `CC(=O)OCCOC(=O)c1ccccc1` came in with a logP of 1.85.

`CCCCc1ccc2nc(C(F)(F)F)[nH]c2c1` yielded a logP of 4.27.

`O=[N+]([O-])C=Cc1ccccc1[N+](=O)[O-]` returned a logP of 1.8.

The molecule `COP(=O)(Oc1cc(Cl)c(Br)cc1Cl)c1ccccc1` (stereo not drawn) showed a logP of 4.58.

As for `CSc1ccccc1C1=NCC(=O)Nc2ccc(Cl)cc21`, the logP is 2.99.

As to `S=C=NCc1ccc2ccccc2c1`, the logP came out at 4.42.

The molecule `O=[N+]([O-])c1cnc(N=C2NCC(O)CN2)s1` (stereo not drawn) had a logP of 0.74.

Molecule `COc1cc(C)nc2ccccc12` came in with a logP of 2.81.

`CCOC(=O)C(C#N)=NNc1ccc(Cl)c(C(F)(F)F)c1` yielded a logP of 4.86.

In the case of `CC(=O)Oc1ccc(N=C2C=CC(=O)C=C2)cc1`, the logP is 1.43.

The molecule `CCCC(=O)N(C)SN(C)C(=O)ON=C(C)SC` returned a logP of 2.2.

`Cc1cc(C(=O)O)no1` gave a logP of 0.68.

Regarding `CN(N=O)C(=O)N(C)c1ccccc1`, the logP was found to be 1.58.

`CCCCOc1cc(Cc2cnc(N)nc2N)c(C)cc1OC`: the logP stood at 2.78.

`NNC(=O)c1ccc2ncccc2c1` came in with a logP of 0.35.

With `O=NN1CCCN(N=O)CC1`, the logP was -0.51.

On to `N#Cc1ccc(NC(=O)N=C(N)N)cc1Cl`, for which the logP turned out to be 1.9.

Regarding `CCOC(=O)CN(C(=O)CCl)c1ccccc1CC`, the lipophilicity (logP) is 2.57.

As for `CN(N=Nc1ccc(C(N)=O)cc1)C(C)(C)C`, the logP came to 2.61.

`CN(C)C1=NC(=O)C(=Cc2ccc([N+](=O)[O-])o2)S1` showed a logP of 1.14.

`CC1=Nc2c(Br)cc(Cl)cc2S(=O)(=O)N1`: the log partition coefficient (logP) is 1.65.

Take `CN(C)C(=O)c1cnc2ccccc2c1`: the logP was 0.99.

Molecule `O=S1(=O)NC=Nc2cc(Cl)ccc21` yielded a logP of 1.01.

For the molecule `O=NN(CCCl)C(=O)NC1CCS(=O)(=O)CC1`, the logP worked out at 0.19.

For `CN=C1SC(=Cc2ccc([N+](=O)[O-])o2)C(=O)N1C`, the logP came to 1.42.

Regarding `O=C(COc1ccc(Cl)cc1)NNCc1ccccc1`, the logP was found to be 2.92.

`O=C1CN=C(c2ccccc2F)c2cc([N+](=O)[O-])ccc2N1` registered a logP of 2.15.

`C=CCc1c(OCC)cc(Cc2cnc(N)nc2N)cc1OCC` came in with a logP of 3.08.

Take `CS(=O)(=O)CCCOc1ccc([N+](=O)[O-])cc1`: the logP stood at 0.93.

`CC1=Nc2cc(N)c(Cl)cc2S(=O)(=O)N1` yielded a logP of 0.63.

Regarding `CN(C)N=Nc1cccc([N+](=O)[O-])c1`, the logP was 2.75.

`O=[N+]([O-])C=Cc1ccccc1Cl` came in with a logP of 2.85.

The molecule `Oc1nc2ccccc2nc1O` returned a logP of 0.2.

In the case of `COc1ccccc1C(=O)NCCCCN`, the logP came out at 0.58.

Molecule `COCC(O)Cn1cc([N+](=O)[O-])nc1C` (stereo not drawn) gave a logP of -0.36.

Take `O=C(O)c1ccccc1Nc1cccc([N+](=O)[O-])c1`: the logP stood at 4.57.

In the case of `CN(C)C(=O)c1cc(N2CC2)c([N+](=O)[O-])cc1[N+](=O)[O-]`, the logP came to 0.63.

With `O=NN(CCCl)C(=O)NC1C=CCCC1` (stereo not drawn), the logP turned out to be 2.45.

`NC(=O)Nc1cnc2ccccc2n1`: the logP turned out to be 1.3.

The molecule `Nc1ncc(Cc2cc(Cl)c(Cl)cc2Cl)c(N)n1` gave a logP of 3.79.

As to `S=c1[nH]cnc2[nH]cnc12`, the logP is 0.01.

With `COc1ccccc1C(=O)NCCN`, the logP stood at 0.

Turning to `CC1N=C(c2ccccc2Cl)c2cc(Cl)ccc2N(C)C1=O` (stereo not drawn), the logP was found to be 3.4.

The molecule `CC(C)(C)C(=O)C(C#N)=NNc1cccc(Cl)c1` had a logP of 4.62.

The molecule `CNc1cc(Cc2cnc(N)nc2N)cc(NC)c1` came in with a logP of 0.44.

`CC(=O)c1cccc(NS(=O)(=O)C(F)(F)F)c1`: the logP came out at 2.78.

Regarding `NS(=O)(=O)NS(=O)(=O)Nc1ccccc1`, the logP was determined as 0.02.

The molecule `CN(C)c1ccc(Cc2cnc(N)nc2N)cc1` displayed a logP of 1.82.

`Brc1cccc(Br)c1NC1=NCCN1` gave a logP of 1.96.

In turn, `Nc1ccc(Cc2cnc(N)nc2N)cc1` had a logP of 0.22.

On to `O=[N+]([O-])c1nccn1CC(O)CCl` (stereo not drawn), for which the logP was 0.15.

In turn, `COc1cccc(C=C(C(C)=O)C(C)=O)c1` had a logP of 1.79.

As to `Nc1nc(=O)c2ccccc2[nH]1`, the logP was determined as 0.6.

`CCCCCCCCCC[n+]1cc(C)cc(C)c1.[I-]`: the logP was determined as 0.76.

Take `O=C(c1ccncc1)c1ccc([N+](=O)[O-])cc1`: the logP amounted to 1.76.

`COc1nc(C)cc(-n2[nH]c(C)cc2=O)n1` had a logP of 1.03.

Take `O=C1CCC(=O)N1c1ccccc1Br`: the logP amounted to 0.65.

Take `Cc1ccc(C=C[N+](=O)[O-])cc1`: the logP is 2.66.

Molecule `CC(C)CNC(=O)NN` had a logP of -0.84.

The molecule `Cc1c[n+]([O-])c2ccccc2c1[N+](=O)[O-]` registered a logP of 1.06.

The molecule `CNC(=O)C1CCCN1C(C)=O` (stereo not drawn) had a logP of -1.19.

In the case of `CCCCCOn1c(=O)[nH]c(C)c(Br)c1=O`, the logP is 1.69.

For the molecule `CSc1ccc(NS(=O)(=O)C(F)(F)F)cc1`, the logP is 3.74.

Take `CCc1cc(C(=O)NN)ccn1`: the logP is 0.12.

The molecule `CCCC(CO)n1cnc2c(N)ncnc21` (stereo not drawn) returned a logP of 0.66.

As for `CCOC(=O)CN(C(=O)CCl)c1ccccc1OC`, the logP is 1.78.

Molecule `CC(C)c1ccc(C(O)C(CO)NC(=O)C(Cl)Cl)cc1` (stereo not drawn) showed a logP of 2.24.

In turn, `ClC1C(Cl)C(Cl)C(Br)C(Cl)C1Cl` (stereo not drawn) showed a logP of 3.74.

As for `CC(C)Oc1ccccc1OC(=O)N(C)C`, the logP came to 2.06.

In turn, `CC12CC3(C)CC(C)(C1)CC(N)(C2)C3` yielded a logP of 4.01.

`Nc1ccc(C(O)C(CO)NC(=O)C(Cl)Cl)cc1` (stereo not drawn) returned a logP of -0.29.

In the case of `NNC(=O)c1cccc(N)c1`, the logP is -0.86.

For the molecule `CC(=O)Nc1ccccc1C(C)=O`, the logP was 1.5.

Consider `CC1CCCN(N=O)C1` (stereo not drawn), for which the logP was 0.99.

Turning to `CS(=O)(=O)Oc1ccccc1Cc1cnc(N)nc1N`, the logP turned out to be 0.71.

In the case of `COc1cc(C)c(Cc2cnc(N)nc2N)cc1OC`, the logP was 1.23.

Regarding `O=CNc1nccs1`, the logP stood at 0.54.

`NC1CC2CC1c1cc(C(F)(F)F)ccc12` (stereo not drawn) had a logP of 3.19.

Consider `COC(=O)C(C#N)=NNc1cccc(C(F)(F)F)c1`, for which the logP stood at 3.78.

`C=C(Br)CC1(C(C)CC)C(=O)NC(=O)N(C)C1=O` (stereo not drawn) yielded a logP of 2.43.

For the molecule `O=C1CN=C(c2ccccc2[N+](=O)[O-])c2cc([N+](=O)[O-])ccc2N1`, the logP was 1.61.

In the case of `CNC=CC(C)c1ccccn1` (stereo not drawn), the logP turned out to be 1.13.
